One series deals with KKAY mice. The series can be described thus: Hypoglycemic and hypolipidemic actions in mice (Test Example 1). In kind it is in vivo. The conditions noted are these: Mus musculus, po, 96 h, 0.005% in powdery diet, four days. The source says: Test compounds were mixed in a powdery diet (CE-2, Japan Clea) at the concentration of 0.01% (compounds of Examples 7, 26, 29, 32) or 0.005% (compounds of Examples 1, 11, 15, 18, 24, 36, 37, 41, 48, 50, 51, 52, 58, 62, 79, 83, 88, 90, 91, 92, 93, 97, 107, 110, 115, 119, 122, 125, 129 and 130), and freely given to KKAY mice (11 to 12 weeks old, 5 mice in a group), a model of type 2 diabetes mellitus, for four days. During this period, water was given freely. Blood was sampled from orbital venous plexus, and glucose and triglyceride levels in plasma separated from blood were determined enzymatically using L type Wako Glu2 (Wako Pure Chemical Industries, Ltd.) or L type Wako TG.H (Wako Pure Chemical Industries, Ltd.), respectively.
In the Table, “hypoglycemic action (%)” means a percent reduction (%) of the glucose level in the test compound administration group when that of the test compound non-administration group is taken as 100%. In addition, the “hypolipidemic action (%)” means a percent reduction (%) of the triglyceride level in the test compound administration group when that of the test compound non-administration group is taken as 100%.

A further series has as its target T1, PPARγ-RXRα heterodimer (Homo sapiens, UniProt P37231).
T1 construct: expressed in transfected cells; host or cells: CHO-K1
T1 sequence (P37231 1-477 isoform P37231-2): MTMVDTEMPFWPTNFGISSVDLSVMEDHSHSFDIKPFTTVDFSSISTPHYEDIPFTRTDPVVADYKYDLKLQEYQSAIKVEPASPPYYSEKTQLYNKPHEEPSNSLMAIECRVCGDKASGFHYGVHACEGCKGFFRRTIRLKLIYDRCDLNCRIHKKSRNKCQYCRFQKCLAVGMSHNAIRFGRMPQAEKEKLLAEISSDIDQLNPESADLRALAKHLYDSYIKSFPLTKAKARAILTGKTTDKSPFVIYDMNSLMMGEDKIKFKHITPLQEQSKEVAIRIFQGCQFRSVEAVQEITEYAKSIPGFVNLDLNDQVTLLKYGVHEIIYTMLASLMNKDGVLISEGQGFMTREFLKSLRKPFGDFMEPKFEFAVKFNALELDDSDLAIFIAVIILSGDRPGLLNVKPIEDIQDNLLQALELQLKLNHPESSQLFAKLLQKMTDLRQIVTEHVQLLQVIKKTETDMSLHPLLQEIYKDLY
T1 sequence (P19793 1-462 partner): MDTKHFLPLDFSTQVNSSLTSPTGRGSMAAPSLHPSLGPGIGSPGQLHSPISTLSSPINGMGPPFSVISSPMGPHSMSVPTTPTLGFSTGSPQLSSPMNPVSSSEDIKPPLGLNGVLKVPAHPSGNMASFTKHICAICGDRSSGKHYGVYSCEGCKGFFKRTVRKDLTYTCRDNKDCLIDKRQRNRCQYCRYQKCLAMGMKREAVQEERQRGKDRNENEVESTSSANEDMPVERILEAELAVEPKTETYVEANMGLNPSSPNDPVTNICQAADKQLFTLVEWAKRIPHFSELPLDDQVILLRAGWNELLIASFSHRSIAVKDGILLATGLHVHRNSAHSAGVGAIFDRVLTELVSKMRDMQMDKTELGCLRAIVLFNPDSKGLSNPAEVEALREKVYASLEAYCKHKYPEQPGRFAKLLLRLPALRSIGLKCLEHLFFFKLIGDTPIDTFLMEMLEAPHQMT
Put plainly: PPARγ-RXRα heterodimer ligand activity, luciferase reporter in PPARγ:RXRα:4ERPP/CHO-K1 cells (Test Example 3). Type of series: cell-based. The conditions noted are these: concentration for 50% of the maximum fold induction of luciferase activity; 48 hours, CHO-K1 cells. The method, then: A PPARγ:RXRα:4ERPP/CHO-K1 cells obtained in Reference Example 5 described later were cultured in HAM F12 medium (produced by NISSUI SEIYAKU) containing 10% Fetal bovine serum (produced by Life Technologies, Inc., USA) and then inoculated to a 96-well white plate (produced by Corning Costar Corporation, USA) at the density of 2×10^4 cells/well, and cultured in a CO2 gas incubator at 37° C. overnight.
After washing the 96 well white plate with PBS (Phosphate-buffered saline), 90 μl of HAM F12 medium containing 0.1% fatty acid-free bovine serum albumin (BSA) and 10 μl of test compound were added, which was cultured in a CO2 gas incubator at 37° C. for 48 hours. After removing the medium, 40 μl of PIKKAGENE 7.5 (produced by Wako Pure Chemical Industries, Ltd.) was added. After stirring, the luciferase activity was determined using Lumistar (produced by BMG Labtechnologies GmbH, Germany).
A fold induction was calculated based on the luciferase activity of each test compound by taking the luciferase activity in the test compound non administration group as 1. The values of the test compound, concentration and the fold induction were analyzed using PRISM 2.01 (produced by GraphPad Software Inc. USA) to calculate the EC50 values, the effective concentration of a test compound for 50% of the maximum fold induction.
After a CHO-K1 cell cultured in a 750 ml tissue culture flask (produced by Corning-Costar Corporation, USA) containing HAM F12 medium (produced by NISSUI SEIYAKU) supplemented with 10% Fetal Bovine Serum (produced by Life Technologies, Inc., USA) was scraped by treating with 0.5 g/L trypsin-0.2 g/L EDTA (ethylenediaminetetraacetic acid) (produced by Life Technologies, Inc., USA), the cell was washed with PBS (phosphate buffered saline) (produced by Life Technologies, Inc., USA), centrifuged (1000 rpm, 5 minutes), and then suspended in PBS. Subsequently, a DNA was introduced into the cell under the condition shown below using GENE PULSER (produced by Bio-Rad Laboratories, USA).
Namely, to a cuvette having a 0.4 cm gap, added were 8×10^6 cells and 10 μg of plasmid pVgRXR2-hPPARγ obtained in Reference Example 3 and 10 μg of reporter plasmid pGL3-4ERPP-TK neo obtained in Reference Example 4, which was subjected to electroporation at the voltage of 0.25 kV under the capacitance of 960 μF. Subsequently, the cell was transferred into a HAM F12 medium containing 10% Fetal Bovine. Serum and cultured for 24 hours. Then the cell was scraped again and centrifuged, and then suspended in HAM F12 medium containing 10% Fetal Bovine Serum supplemented with 500 μg/ml of GENETICIN (produced by Life Technologies, Inc., USA) and 250 μg/ml of ZEOCIN (produced by Invitrogen, USA). The suspension was diluted to the density of 10^4 cells/ml, and inoculated to a 96-well plate (produced by Corning Costar Corporation, USA), which was cultured in a CO2 gas incubator at 37° C., whereby obtaining a GENETICIN- and ZEOCIN-resistant transformant.
Subsequently, after the transformant cell line thus obtained was cultured in a 24-well plate (produced by Corning Costar Corporation, USA), selected was a cell line, PPARγ:RXRα:4ERPP/CHO-K1 cell, in which the luciferase was expressed and induced by addition of 10 μM pioglitazone hydrochloride.

Where [1] appears, read: percent reduction of plasma glucose level vs non-administration group, read-out: hypoglycemic action (%).
[2] abbreviates: percent reduction of plasma triglyceride level vs non-administration group, read-out: hypolipidemic action (%).

Where two headings read alike, the source gives them in different places.

The term EC50 denotes the concentration that produces a half-maximal response. Low values mean greater potency, high ones weaker potency. What is called melting point is the temperature of the solid-liquid transition. Molecule `Cc1sc(-c2ccccc2)nc1COc1ccc(COc2ccccc2CC(=O)O)cn1` [Example 122, 2-[2-[[6-[(5-methyl-2-phenyl-4-thiazolyl)methoxy]-3-pyridyl]methoxy]phenyl]acetic acid] registered a melting point of 173 to 174 °C. In addition, the inhibition in vivo at 0.005 % in the series on KKAY mice (setting [1]) is 52%. Besides, in the series on KKAY mice (setting [2]), the inhibition in vivo at 0.005 % was 67%. At PPARγ-RXRα heterodimer, this molecule displayed an EC50 of 17 nM.
In turn, `Cc1oc(-c2ccccc2)nc1COc1ccc(OCc2ncccc2CC(=O)O)cc1` [Example 125, 2-[2-[[4-[(5-methyl-2-phenyl-4-oxazolyl)methoxy]phenoxy]methyl]-3-pyridyl]acetic acid] had a melting point of 126 to 127 °C. The inhibition in vivo at 0.005 % in the series with KKAY mice (setting [1]) turned out to be 41%. Further, the inhibition in vivo at 0.005 % with KKAY mice (setting [2]) was 40%. Moreover, the concentration for a half-maximal effect (EC50) on PPARγ-RXRα heterodimer was determined as 130 nM.
